The structures appear in SMILES notation.

The subject of one assay is MAPK p38 phosphorylation. Description: MAPK p38 Activation Assay (western blot), Panc-1. As to conditions: at 10 μM, Panc-1 pancreatic cancer cell line; starred symbols = activation. The assay is classed as cell-based, human. The gist of the method:
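Panc-1 cells (KRas G12D) were treated with compound for 6 h at 37 °C, at 10 μM or as serial dilutions for IC50, with 0.3% DMSO. Method 1 used overnight serum-starved cells (0.5% FBS) stimulated with 1.5 ng/ml EGF for 15 min; Method 2 used unstimulated cells in 10% FBS. Phospho-p38 (Thr180/Tyr182) was detected by western blot.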
(In western blotting, separated proteins are transferred to a membrane and probed.)

The test system of a further assay is IL6. Description: IL-6 Quantification Assay (ELISA), LPS-stimulated RAW 264.7. The note with it: Mus musculus, RAW264.7; read-out: IL-6: % inh. The arrangement: inhibition: dose or concentration left out as unconfirmed. The assay is classed as cell-based. On the technique in general: An ELISA detects its analyte on a solid surface through an enzyme-linked reagent.

For the next assay, the system named is Erk1/2 phosphorylation. Description: Erk1/2 Phosphorylation Assay (western blot), Panc-1. The note with it: at 10 μM, * = activation. The class given is cell-based, human. The gist of the method: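 KRas G12D Panc-1 cells were treated 6 h at 37° C with compound at 10 μM or serial dilutions for IC50 (0.3% DMSO). In method 1, cells were serum-starved overnight (0.5% FBS) and then given 1.5 ng/ml EGF for 15 min. In method 2, cells stayed in 10% FBS without stimulation. Lysate phospho-Erk1/2 (Thr202/Tyr204) was read by western blot.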

Turning to `COC[C@@H]1CC[C@@H]1CNc1nc(-c2ccccn2)nn2cc(-c3ccn(C(C)C)n3)c(-c3ccccc3)c12` (racemic) [Compound 26, rac 6-(1-Isopropyl-1H-pyrazol-3-yl)-N-(((1S,2R)-2-(methoxymethyl)cyclobutyl)methyl)-5-phenyl-2-(pyridin-2-yl)pyrrolo[2,1-f][1,2,4]triazin-4-amine], the “% inh of MAPK p38 in Panc-1” value with MAPK p38 phosphorylation is “H* (H* ≥ 100% activation)”. Moreover, the inhibition with IL6 was 50 to 74%. The “% inh of Erk1/2 phosphorylation in Panc-1” value in the assay on Erk1/2 phosphorylation was “D (85-100% inhibition)”.
For `Cc1c(-c2ccn(C(C)C)n2)cn2nc(-c3nccn3C)nc(Nc3nc(C4CC4)no3)c12` [Compound 70, 3-Cyclopropyl-N-(6-(1-isopropyl-1H-pyrazol-3-yl)-5-methyl-2-(1-methyl-1H-imidazol-2-yl)pyrrolo[2,1-f][1,2,4]triazin-4-yl)-1,2,4-oxadiazol-5-amine] the same measures were “H* (H* ≥ 100% activation)”, 50 to 74% and “B* (26-49% activation)”.
For `COc1cccc(-c2cn3nc(-c4nccn4C)nc(O)c3c2-c2ccccc2)c1Cl` [Compound 28, 6-(2-Chloro-3-methoxyphenyl)-2-(1-methyl-1H-imidazol-2-yl)-5-phenylpyrrolo[2,1-f][1,2,4]triazin-4-ol] the same measures were “H* (H* ≥ 100% activation)”, 25 to 49% and 0 (0% inhibition).
Regarding `COc1cccc(-c2cn3nc(-c4nccn4C)nc(N[C@@H]4CC[C@@H](OC)C4)c3c2-c2ccccc2)c1F` (racemic) [Compound 43, rac 6-(2-Fluoro-3-methoxyphenyl)-N-((1R,3R)-3-methoxycyclopentyl)-2-(1-methyl-1H-imidazol-2-yl)-5-phenylpyrrolo[2,1-f][1,2,4]triazin-4-amine], in the assay on MAPK p38 phosphorylation, the “% inh of MAPK p38 in Panc-1” value is “H* (H* ≥ 100% activation)”. Further, the inhibition with IL6 lay within 25 to 49%. Further, in the assay with Erk1/2 phosphorylation, the “% inh of Erk1/2 phosphorylation in Panc-1” value is given as “D (85-100% inhibition)”.
As for `COc1ccc(-c2cn3nc(-c4nccn4C)nc(Nc4cc(OC)ncn4)c3c2C)cn1` [Compound 66, 6-(6-Methoxypyridin-3-yl)-N-(6-methoxypyrimidin-4-yl)-5-methyl-2-(1-methyl-1H-imidazol-2-yl)pyrrolo[2,1-f][1,2,4]triazin-4-amine], the “% inh of MAPK p38 in Panc-1” value in the assay with MAPK p38 phosphorylation is on record as “H* (H* ≥ 100% activation)”. The inhibition with IL6 lay within 1 to 24%. In the assay on Erk1/2 phosphorylation, the “% inh of Erk1/2 phosphorylation in Panc-1” value is “C (50-84% inhibition)”.
In the case of `Cc1c(-c2ccn(C(C)C)n2)cn2nc(-c3nccn3C)nc(Nc3ncccn3)c12` [Compound 54, 6-(1-Isopropyl-1H-pyrazol-3-yl)-5-methyl-2-(1-methyl-1H-imidazol-2-yl)-N-(pyrimidin-2-yl)pyrrolo[2,1-f][1,2,4]triazin-4-amine], the “% inh of MAPK p38 in Panc-1” value in the assay with MAPK p38 phosphorylation is recorded as “H* (H* ≥ 100% activation)”. For the same compound, the inhibition with IL6 lay in the range of 25 to 49%. In addition, the “% inh of Erk1/2 phosphorylation in Panc-1” value in the assay with Erk1/2 phosphorylation was “C (50-84% inhibition)”.
Consider `COc1cc(Nc2nc(-c3nccn3C)nn3cc(-c4ccn(C(C)C)n4)c(C)c23)n[nH]1` [Compound 51, 6-(1-Isopropyl-1H-pyrazol-3-yl)-N-(5-methoxy-1H-pyrazol-3-yl)-5-methyl-2-(1-methyl-1H-imidazol-2-yl)pyrrolo[2,1-f][1,2,4]triazin-4-amine], for which the “% inh of MAPK p38 in Panc-1” value with MAPK p38 phosphorylation is given as “H* (H* ≥ 100% activation)”. Besides, the inhibition in the assay on IL6 was 50 to 74%. The “% inh of Erk1/2 phosphorylation in Panc-1” value in the assay on Erk1/2 phosphorylation is on record as 0 (0% inhibition).
For `Cc1c(-c2ccn(C(C)C)n2)cn2nc(-c3nccn3C)nc(Nc3ccn(C(C)C)n3)c12` [Compound 72, N,6-bis(1-Isopropyl-1H-pyrazol-3-yl)-5-methyl-2-(1-methyl-1H-imidazol-2-yl)pyrrolo[2,1-f][1,2,4]triazin-4-amine] the same measures were “H* (H* ≥ 100% activation)”, 50 to 74% and “D* (85-100% activation)”.
`CCn1ccc(-c2cn3nc(-c4nccn4C)nc(Nc4cc(OC)ncn4)c3c2C)n1` [Compound 64, 6-(1-Ethyl-1H-pyrazol-3-yl)-N-(6-methoxypyrimidin-4-yl)-5-methyl-2-(1-methyl-1H-imidazol-2-yl)pyrrolo[2,1-f][1,2,4]triazin-4-amine]: the “% inh of MAPK p38 in Panc-1” value in the assay on MAPK p38 phosphorylation is on record as “H* (H* ≥ 100% activation)”. In the assay on IL6, the inhibition fell in the range of 1 to 24%. In addition, in the assay on Erk1/2 phosphorylation, the “% inh of Erk1/2 phosphorylation in Panc-1” value is given as “A (1-25% inhibition)”.
`Cc1c(-c2ccn(C(C)C)n2)cn2nc(-c3nccn3C)nc(Nc3ccncc3)c12` [Compound 52, 6-(1-Isopropyl-1H-pyrazol-3-yl)-5-methyl-2-(1-methyl-1H-imidazol-2-yl)-N-(pyridin-4-yl)pyrrolo[2,1-f][1,2,4]triazin-4-amine]: in the assay with MAPK p38 phosphorylation, the “% inh of MAPK p38 in Panc-1” value was “F* (F* = 31-74% activation)”. Moreover, the inhibition in the assay with IL6 stood at 0%. In addition, the “% inh of Erk1/2 phosphorylation in Panc-1” value with Erk1/2 phosphorylation is listed as 0 (0% inhibition).
`COc1cccc(-c2cn3nc(-c4nccn4C)nc(N[C@H]4C[C@@H](OC)C4)c3c2-c2ccccc2)c1Cl` [Compound 31, 6-(2-Chloro-3-methoxyphenyl)-N-((1s,3s)-3-methoxycyclobutyl)-2-(1-methyl-1H-imidazol-2-yl)-5-phenylpyrrolo[2,1-f][1,2,4]triazin-4-amine]: in the assay on MAPK p38 phosphorylation, the “% inh of MAPK p38 in Panc-1” value is listed as “H* (H* ≥ 100% activation)”. Besides, the inhibition in the assay on IL6 was 75 to 100%. Further, the “% inh of Erk1/2 phosphorylation in Panc-1” value with Erk1/2 phosphorylation is “D (85-100% inhibition)”.
With `COCCNc1nc(-c2nccn2C)nn2cc(-c3cccc(OC)c3Cl)c(-c3ccccc3)c12` [Compound 29, 6-(2-Chloro-3-methoxyphenyl)-N-(2-methoxyethyl)-2-(1-methyl-1H-imidazol-2-yl)-5-phenylpyrrolo[2,1-f][1,2,4]triazin-4-amine], in the assay on MAPK p38 phosphorylation, the “% inh of MAPK p38 in Panc-1” value is given as “H (H = 100% inhibition)”. In addition, in the assay on IL6, the inhibition lay within 75 to 100%. Moreover, the “% inh of Erk1/2 phosphorylation in Panc-1” value with Erk1/2 phosphorylation is listed as “D (85-100% inhibition)”.
The like results for `COCCNc1nc(-c2nccn2C)nn2cc(-c3ccn(C(C)C)n3)c(C(C)C)c12` [Compound 35, 5-Isopropyl-6-(1-isopropyl-1H-pyrazol-3-yl)-N-(2-methoxyethyl)-2-(1-methyl-1H-imidazol-2-yl)pyrrolo[2,1-f][1,2,4]triazin-4-amine] were, in that order, “H* (H* ≥ 100% activation)”, 25 to 49% and 0 (0% inhibition).
For `CO[C@H]1CC[C@@H](Nc2nc(-c3ccccn3)nn3cc(-c4ccn(C(C)C)n4)c(-c4ccccc4)c23)C1` (racemic) [Compound 24, rac 6-(1-Isopropyl-1H-pyrazol-3-yl)-N-((1R,3S)-3-methoxycyclopentyl)-5-phenyl-2-(pyridin-2-yl)pyrrolo[2,1-f][1,2,4]triazin-4-amine] the same measures were “H* (H* ≥ 100% activation)”, 25 to 49% and 0 (0% inhibition).
As for `COc1cc(Nc2nc(-c3nccn3C)nn3cc(-c4cccc(OC)n4)c(C)c23)ncn1` [Compound 65, 6-(6-Methoxypyridin-2-yl)-N-(6-methoxypyrimidin-4-yl)-5-methyl-2-(1-methyl-1H-imidazol-2-yl)pyrrolo[2,1-f][1,2,4]triazin-4-amine], the “% inh of MAPK p38 in Panc-1” value with MAPK p38 phosphorylation is recorded as “H* (H* ≥ 100% activation)”. Also, in the assay on IL6, the inhibition was in the range of 1 to 24%. The “% inh of Erk1/2 phosphorylation in Panc-1” value with Erk1/2 phosphorylation is recorded as “A (1-25% inhibition)”.
